For one data set, the target named is TEAD2 (Homo sapiens (Human), UniProt Q15562).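 Also: TR-FRET competition assay with His-tagged TEAD protein and a biotinylated lipid pocket probe, compound pre-incubated 30 min or 4 h at room temperature, displacement lowers signal.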
For the next data set, the target named is TEAD4 (Homo sapiens (Human), UniProt Q15561). As to the kind of experiment: TR-FRET lipid pocket probe competition assay (Lipid HTRF), TEAD4.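 Also: His-tagged TEAD4 with biotinylated lipid-pocket probe, read by Europium anti-His and XL665 streptavidin, where probe displacement lowers the TR-FRET signal, IC50 from a four-parameter fit.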 In kind it is binding. As to conditions: 4 hours pre-incubation; read-out: Lipid HTRF TEAD4 IC50.
The target of a further data set is TEAD3 (Homo sapiens (Human), UniProt Q99594). As to the kind of experiment: TR-FRET lipid pocket probe competition assay (Lipid HTRF), TEAD3. In kind it is binding. Particulars: 4 hours pre-incubation; read-out: Lipid HTRF TEAD3 IC50. On the technique in general: In TR-FRET formats the signal depends on donor and acceptor labels being close together.
A further data set deals with hNav1.5 sodium channels (Homo sapiens (Human), UniProt Q14524). As to the kind of experiment: Cloned hNav1.5 sodium channels expressed in CHO cells, QPatch HT automated patch clamp. As to conditions: 10 uM, mean % inhibition, n>=2 cells. Format: cell-based. (Patch clamp records ionic current or voltage across a cell membrane.)
Another data set deals with TEAD1 (Homo sapiens (Human), UniProt P28347). As to the kind of experiment: TR-FRET lipid pocket probe competition assay (Lipid HTRF), TEAD1.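 Also: His-tagged TEAD1 with biotinylated probe, detected via Europium anti-His and XL665 streptavidin, probe displacement lowers TR-FRET signal, IC50 from four-parameter nonlinear fit.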 Format: binding. Particulars: 4 hours pre-incubation; read-out: Lipid HTRF TEAD1 IC50.
TEAD1, sequence (P28347 whole entry, species assumed): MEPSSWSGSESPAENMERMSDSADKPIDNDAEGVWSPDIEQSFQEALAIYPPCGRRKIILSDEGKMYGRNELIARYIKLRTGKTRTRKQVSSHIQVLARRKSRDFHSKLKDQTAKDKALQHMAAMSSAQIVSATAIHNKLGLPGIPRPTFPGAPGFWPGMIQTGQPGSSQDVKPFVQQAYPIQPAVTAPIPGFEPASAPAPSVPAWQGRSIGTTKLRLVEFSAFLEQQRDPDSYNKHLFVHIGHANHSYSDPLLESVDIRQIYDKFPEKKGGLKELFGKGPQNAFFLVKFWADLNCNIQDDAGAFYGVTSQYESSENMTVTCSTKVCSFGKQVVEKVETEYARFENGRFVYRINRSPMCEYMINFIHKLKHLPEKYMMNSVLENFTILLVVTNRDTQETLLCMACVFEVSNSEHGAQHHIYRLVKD

TEAD2, sequence (Q15562 whole entry, species assumed): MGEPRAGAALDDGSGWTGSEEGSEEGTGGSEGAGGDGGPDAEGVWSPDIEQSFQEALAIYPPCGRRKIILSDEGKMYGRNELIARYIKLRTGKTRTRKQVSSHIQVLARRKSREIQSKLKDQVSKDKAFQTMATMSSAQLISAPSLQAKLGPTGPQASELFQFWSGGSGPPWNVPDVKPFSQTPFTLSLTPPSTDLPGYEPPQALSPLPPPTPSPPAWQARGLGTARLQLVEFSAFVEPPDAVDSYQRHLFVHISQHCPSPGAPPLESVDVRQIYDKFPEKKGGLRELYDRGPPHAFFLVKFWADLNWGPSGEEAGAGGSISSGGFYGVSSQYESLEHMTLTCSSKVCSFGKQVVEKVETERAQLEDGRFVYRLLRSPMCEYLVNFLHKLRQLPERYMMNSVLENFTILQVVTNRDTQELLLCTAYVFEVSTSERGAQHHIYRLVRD
TEAD4, sequence (Q15561 whole entry, species assumed): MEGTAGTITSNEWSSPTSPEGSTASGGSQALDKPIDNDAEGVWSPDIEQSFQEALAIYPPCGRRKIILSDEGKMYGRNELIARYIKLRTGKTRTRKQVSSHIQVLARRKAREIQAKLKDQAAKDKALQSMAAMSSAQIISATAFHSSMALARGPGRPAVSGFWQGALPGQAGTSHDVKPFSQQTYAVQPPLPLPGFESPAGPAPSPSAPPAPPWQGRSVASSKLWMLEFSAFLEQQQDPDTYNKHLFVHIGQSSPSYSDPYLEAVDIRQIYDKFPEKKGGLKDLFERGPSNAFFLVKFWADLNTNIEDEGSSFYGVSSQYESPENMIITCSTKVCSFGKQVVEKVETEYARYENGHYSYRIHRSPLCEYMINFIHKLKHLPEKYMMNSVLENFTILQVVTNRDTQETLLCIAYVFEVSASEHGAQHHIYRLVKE
TEAD3, sequence (Q99594 whole entry, species assumed): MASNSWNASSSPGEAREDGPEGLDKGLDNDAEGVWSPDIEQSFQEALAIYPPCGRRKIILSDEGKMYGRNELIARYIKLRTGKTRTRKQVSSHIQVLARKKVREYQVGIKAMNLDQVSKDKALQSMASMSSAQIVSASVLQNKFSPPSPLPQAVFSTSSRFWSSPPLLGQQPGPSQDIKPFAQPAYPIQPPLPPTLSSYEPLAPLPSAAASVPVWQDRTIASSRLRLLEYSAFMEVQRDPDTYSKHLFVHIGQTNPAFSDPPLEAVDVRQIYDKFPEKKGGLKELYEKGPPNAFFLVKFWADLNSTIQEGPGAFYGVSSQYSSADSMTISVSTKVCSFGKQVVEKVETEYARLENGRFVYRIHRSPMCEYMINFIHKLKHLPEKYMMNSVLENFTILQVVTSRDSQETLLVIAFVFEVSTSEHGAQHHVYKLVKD
hNav1.5 sodium channels, sequence (Q14524 whole entry): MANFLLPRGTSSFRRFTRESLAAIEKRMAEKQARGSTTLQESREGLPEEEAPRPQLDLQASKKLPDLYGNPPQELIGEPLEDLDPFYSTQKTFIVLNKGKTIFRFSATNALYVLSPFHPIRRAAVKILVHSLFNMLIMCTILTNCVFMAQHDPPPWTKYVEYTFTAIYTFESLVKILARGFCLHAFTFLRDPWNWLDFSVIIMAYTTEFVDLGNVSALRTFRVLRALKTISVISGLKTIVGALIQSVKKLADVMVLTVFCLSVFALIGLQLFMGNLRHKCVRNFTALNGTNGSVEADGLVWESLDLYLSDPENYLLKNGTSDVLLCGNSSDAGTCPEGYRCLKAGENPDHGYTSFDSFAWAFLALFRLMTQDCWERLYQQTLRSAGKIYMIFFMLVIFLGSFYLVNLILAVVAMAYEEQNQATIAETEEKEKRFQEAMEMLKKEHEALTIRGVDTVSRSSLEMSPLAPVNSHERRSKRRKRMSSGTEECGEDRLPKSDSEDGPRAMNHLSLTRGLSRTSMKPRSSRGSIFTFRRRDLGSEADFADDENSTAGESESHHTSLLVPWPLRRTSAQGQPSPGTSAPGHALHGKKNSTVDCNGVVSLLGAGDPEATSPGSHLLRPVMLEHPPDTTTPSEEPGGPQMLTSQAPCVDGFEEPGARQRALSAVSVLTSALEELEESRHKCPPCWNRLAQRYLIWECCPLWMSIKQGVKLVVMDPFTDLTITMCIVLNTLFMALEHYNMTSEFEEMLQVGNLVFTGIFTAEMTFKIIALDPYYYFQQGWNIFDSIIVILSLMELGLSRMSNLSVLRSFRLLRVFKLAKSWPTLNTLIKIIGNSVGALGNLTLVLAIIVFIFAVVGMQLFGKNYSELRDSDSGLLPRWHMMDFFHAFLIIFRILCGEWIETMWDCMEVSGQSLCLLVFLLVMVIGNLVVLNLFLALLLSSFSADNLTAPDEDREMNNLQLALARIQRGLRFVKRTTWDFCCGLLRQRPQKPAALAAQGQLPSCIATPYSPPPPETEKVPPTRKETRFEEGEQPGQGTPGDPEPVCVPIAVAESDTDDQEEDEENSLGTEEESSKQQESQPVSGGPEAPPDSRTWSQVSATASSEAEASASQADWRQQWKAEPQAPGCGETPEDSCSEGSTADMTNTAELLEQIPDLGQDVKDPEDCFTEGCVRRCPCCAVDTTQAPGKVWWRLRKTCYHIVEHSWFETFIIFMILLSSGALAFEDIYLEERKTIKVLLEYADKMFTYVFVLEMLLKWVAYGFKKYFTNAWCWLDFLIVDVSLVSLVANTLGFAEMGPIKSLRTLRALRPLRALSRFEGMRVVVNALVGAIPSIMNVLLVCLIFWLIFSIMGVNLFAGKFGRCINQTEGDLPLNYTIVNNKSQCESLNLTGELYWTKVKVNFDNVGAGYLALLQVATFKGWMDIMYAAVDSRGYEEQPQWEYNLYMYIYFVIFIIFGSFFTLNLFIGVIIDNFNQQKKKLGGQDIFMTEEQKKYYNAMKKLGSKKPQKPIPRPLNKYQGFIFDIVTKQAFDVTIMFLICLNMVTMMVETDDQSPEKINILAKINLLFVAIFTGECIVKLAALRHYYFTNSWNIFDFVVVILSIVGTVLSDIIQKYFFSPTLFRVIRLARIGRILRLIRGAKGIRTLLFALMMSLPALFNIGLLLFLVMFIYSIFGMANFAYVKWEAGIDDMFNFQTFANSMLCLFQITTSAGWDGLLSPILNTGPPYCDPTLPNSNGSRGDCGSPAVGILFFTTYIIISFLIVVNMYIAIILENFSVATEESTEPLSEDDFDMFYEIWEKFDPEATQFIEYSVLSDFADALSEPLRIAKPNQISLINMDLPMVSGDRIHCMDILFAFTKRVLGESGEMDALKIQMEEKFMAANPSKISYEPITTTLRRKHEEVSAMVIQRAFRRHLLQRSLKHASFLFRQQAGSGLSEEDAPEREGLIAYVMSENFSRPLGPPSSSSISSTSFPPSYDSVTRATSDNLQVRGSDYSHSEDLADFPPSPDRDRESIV
Protocol for TEAD1: His-tagged TEAD proteins are pre-incubated with TEAD project compounds for 30 minutes or 4 hours at room temperature. Biotinylated lipid pocket probes are then added to the TEAD/Compound mixture and incubated for 60 minutes at room temperature. The lipid pocket probe competes with the test compound for the TEAD lipid pocket until equilibrium is reached. After 60 minutes, Europium labelled anti-His (Perkin Elmer #AD0110) and XL665 labelled streptavidin (CIS Bio 610SAXAC) are added to the TEAD/test compound/lipid pocket mixture and incubated for 30 minutes or 4 hours. […] If a TEAD lipid pocket binder such as binds and displaces the lipid pocket probe, the disruption of the TEAD:probe interaction results in a decrease in TR-FRET signal. The potency of compounds as TEAD lipid pocket binders is determined by IC50 value generated using a non-linear 4 parameter curve fit.
Protocol for hNav1.5 sodium channels: Example 183 A: Effects of Test Article on Cloned hNav1.5 Sodium Channels Expressed in Mammalian Cells
Chinese hamster ovary (CHO) cells expressing cloned hNav1.5 sodium channels (hNav1.5, encoded by the human SCNSA gene) are responsible for INa sodium channel current. From a 10 mM stock solution, test article was diluted to make a 1 mM, 0.1 mM, and 0.01 mM sub stock, which were stored frozen. All chemicals used in solution preparation were purchased from Sigma-Aldrich (St. Louis, MO) and were of ACS reagent grade purity or higher. Stock solutions of the test articles and the positive control were prepared in dimethyl sulfoxide (DMSO) and stored frozen. Test article and positive control concentrations were prepared fresh daily by diluting stock solutions into a HEPES-buffered physiological saline (HB-PS) solution (composition in mM): NaCl, 137; KCl, 4.0; CaCl2, 1.8; MgCl2, 1; HEPES, 10; Glucose, 10; pH adjusted to 7.4 with NaOH (refrigerated until use). […] Each test article formulation was sonicated (Model 2510/5510, Branson Ultrasonics, Danbury, CT) at room temperature for 20 minutes to facilitate dissolution. In preparation for the recording session, a glass-lined 96-well compound plate was loaded with the appropriate amounts of test and control solutions and placed in the plate well of the QPatch HT® (Sophion Bioscience A/S, Denmark), an automatic parallel patch clamp system. […]

Regarding `C=CC(=O)NCc1nn(-c2ccc(OC(F)(F)F)cc2)c2nccc([C@H](O)CO)c12` [Compound 17, N-[[4-[(1S)-1,2-dihydroxyethyl]-1-[4-(trifluoromethoxy)phenyl]pyrazolo[3,4-b]pyridin-3-yl]methyl]prop-2-enamide], the IC50 against TEAD2 was found to be 32 nM; on TEAD4, 20 nM; at TEAD3 it was 770 nM; at TEAD1, 35 nM. In addition, on hNav1.5 sodium channels, the “NaV1.5 (Phasic) 10 uM concentration % inhibition” value is reported as 32.1%.

A word on the IC50: it is the concentration that inhibits the measured activity by half.
